The subject of one test is Sprague-Dawley rats. Briefly: In vivo method for determining the effect on heart contractility (left ventricular dp/dtmax). As to conditions: Rattus norvegicus, iv, anesthetized rats, vs solvent control, read-out: Contractility increase (%); for change in vivo at 0.1 mg/kg: i.v. bolus injection 0.1 mg/kg; for change in vivo at 0.3 mg/kg: i.v. bolus injection 0.3 mg/kg; for change in vivo at 1 mg/kg: i.v. bolus injection 1.0 mg/kg. The protocol:
Adult male Sprague-Dawley rats (Harlan Winkelmann, Borchen, Germany) weighing 340 to 370 g were anesthetized with pentobarbital (100 mg/kg i.p.) and ventilated with a mixture of oxygen (40%) and room air (60%) at a tidal volume of 1 ml/100 g at 60 breaths/min. Body temperature was maintained at 36.5±0.3° C. with a heating lamp and was monitored with a rectal thermo sensor. Systemic blood pressure was measured in the left carotid artery using a pressure transducer (Combitrans; B. Braun Melsungen AG, Melsungen, Germany) connected to a DC-bridge-amplifier (PLUGSYS/ADC Type 663; Harvard Apparatus GmbH, March-Hugstetten, Germany). The electrocardiogram was measured as lead II via subcutaneously placed electrodes connected to a Heart-Rate-Module ([…] Type 669; Harvard Apparatus GmbH, March-Hugstetten, Germany). A micro-tip catheter (2 French, SPR-320; Millar Instruments, Houston, Tex., USA) was placed via the right carotid artery into the left ventricle, and the left ventricular pressure (LVP) and the enddiastolic pressure (EDP) were continuously measured. Registration of the hemodynamic data was performed via an analog digital converter by a personal computer using Notocord software (HEM version 3.5). Left ventricular contractility (dp/dtmax) and relaxation (dp/dtmin) were calculated from the LVP signal. For intravenous administration of the test compounds, the left jugular vein was prepared and a PP-50 catheter was inserted. Test compounds were administered either by intravenous bolus injection or by intravenous infusion by means of an infusion pump (Unita; B. Braun Melsungen AG, Melsungen, Germany). […] In a typical experiment, several dosages of the test compound were administered subsequently at increasing doses. Statistical significance of the data obtained with drug vs. control experiments, in which solvent was administered, was evaluated with the 2-sided ANOVA test (program Everstat). Increases in left ventricular contractility (percent increase) by example compounds are given in Table 3 in comparison to control experiments in which solvent was administered.

A further test concerns the target T1, human NCX1 (Homo sapiens, UniProt P32418).
T1 construct: expressed in transfected cells
Briefly: NCX1 inhibition, reverse mode (Ca2+ influx into cells), FLIPR Fluo-4 assay. In kind it is cell-based. The conditions noted are these: inhibition of NCX1 in reverse mode (Ca2+ influx into cells); read-out: NCX1rv IC50. The procedure, abridged:
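Max−min Fluo-4 fluorescence (520 nm, FLIPR, 240 points at 2 s) after 20 µM final gramicidin, which drives Na+ loading and reverse-mode Ca2+ entry, gave % inhibition and IC50. Test compound was preincubated 45 min at 16 °C with Fluo-4-loaded CHO cells stably expressing human NCX1, in pH 7.4 buffer containing 3.5 mM CaCl2 and probenecid.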

The text below walks through data of US20140243292A1, “SUBSITUTED 2-(CHROMAN-6-YLOXYL)-THIAZOLES AND THEIR USE AS PHARMACEUTICALS” (Sanofi, priority 2011, published 2014).

SMILES strings stand for the structures. pIC50: −log10 of the molar value.

The pIC50 is the negative decadic logarithm of the IC50, by convention in mol/L.

Regarding `Cc1ccccc1C1CCc2cc(Oc3ncc(C(=O)NCCO)s3)ccc2O1` (centres unmarked) [Example 299, 2-(2-o-Tolyl-chroman-6-yloxy)-thiazole-5-carboxylic acid (2-hydroxy-ethyl)-amide], in the test on Sprague-Dawley rats, the change in vivo at 0.1 mg/kg stood at 36%, the change in vivo at 0.3 mg/kg turned out to be 62% and the change in vivo at 1 mg/kg was 95%. Also, the pIC50 at human NCX1 is 6.40.

Regarding `Cc1ccccc1C1CCc2cc(Oc3ncc(CNC(=O)c4ccno4)s3)ccc2O1` (centres unmarked) [Example 329, Isoxazole-5-carboxylic acid [2-(2-o-tolyl-chroman-6-yloxy)-thiazol-5-ylmethyl]-amide], in the test on Sprague-Dawley rats, the change in vivo at 0.1 mg/kg is 24%, the change in vivo at 0.3 mg/kg was determined as 53% and the change in vivo at 1 mg/kg was 101%. At human NCX1, the pIC50 is 6.22.
